Reference: patent US12037324B2, “Biarylmethyl heterocycles” (Université de Montréal, priority 2016, dated 2024)

How the values were obtained:
hAT1R [1] = target: T1, hAT1R (Homo sapiens, UniProt P30556); experiment: cell-based
T1 sequence (P30556 1-359): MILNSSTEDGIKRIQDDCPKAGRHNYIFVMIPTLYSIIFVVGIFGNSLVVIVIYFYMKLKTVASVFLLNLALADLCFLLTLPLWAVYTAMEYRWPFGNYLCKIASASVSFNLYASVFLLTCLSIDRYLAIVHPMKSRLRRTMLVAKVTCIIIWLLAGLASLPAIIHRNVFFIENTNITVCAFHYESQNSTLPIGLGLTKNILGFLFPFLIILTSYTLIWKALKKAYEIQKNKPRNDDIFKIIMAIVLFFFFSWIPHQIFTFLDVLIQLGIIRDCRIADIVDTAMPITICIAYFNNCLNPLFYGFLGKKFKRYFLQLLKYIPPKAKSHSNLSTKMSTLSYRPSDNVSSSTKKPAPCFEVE

hAT1R [2] = target: T1, hAT1R; experiment: BRET β-arrestin2 biosensor assay, higher receptor expression (hAT1R 5 ng/well), HEK293 cells; type: cell-based; conditions: for EC50: High AT1R Expression
hAT1R [3] = target: T1, hAT1R; experiment: cell-based; conditions: agonist mode; for EC50: read-out: BRET P63 EC50
AGTR1 [4] = target: T2, AGTR1 (Homo sapiens, UniProt P30556); experiment: DiscoveRx IP1 accumulation assay (HTRF), agonist mode, Pathunter CHO-K1 AGTR1 β-arrestin cell line; type: cell-based; conditions: for EC50: read-out: IP-1 EC50
T2 construct: host or cells: Pathunter CHO-K1 AGTR1 β-arrestin cell line (CHO-K1)
T2 sequence (P30556 1-359): T1 sequence (P30556 1-359)
Procedure, shortened: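 Agonist mode in CHO-K1 AGTR1 β-arrestin cells plated 14-16 h before; compounds at varying concentrations for 90 min at 37° C, IP1 accumulation read by HTRF (D2-conjugate and anti-IP1 cryptate, 20 min room temperature). EC50 from 4-parameter logistic fit; activity given as percentage of maximal AII effect.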

AGTR1 [5] = target: T2, AGTR1; experiment: DiscoveRx β-arrestin2 recruitment assay (enzyme complementation, Pathunter CHO-K1 AGTR1 β-arrestin cell line); type: cell-based; conditions: DiscoveRx β-arrestin2 recruitment; for DiscoveRx β-arrestin2 Ymax (%): maximal response
Procedure, shortened: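 CHO-K1 cells expressing AGTR1 with β-arrestin2 enzyme-complementation reporter, plated 14-16 h ahead in 1% serum medium, then exposed to compounds for 90 min at 37° C. Chemiluminescence read after 1 h detection. EC50 (agonist) or IC50 (antagonist) from 4-parameter logistic fit; activity as percentage of All maximal effect.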

[6] = Low AT1R Expression, read-out: BRET β-Arrestin2 Low AT1R Expression EC50
[7] = section of the 42nd table ending at r951, example numbering restarts after the DiscoveRx section, read-out: β-arrestin2 EC50

SMILES | BRET β-Arrestin2 Low AT1R Expression Ymax (%) (hAT1R [1]; Low AT1R Expression) | EC50 (hAT1R [1]; [6]) | BRET β-Arrestin2 High AT1R Expression Ymax (%) (hAT1R [2]) | EC50 (hAT1R [2]) | BRET P63 Ymax (hAT1R [3]) | EC50 (hAT1R [3]) | IP-1 Ymax (%) (AGTR1 [4]) | EC50 (AGTR1 [4]) | EC50 (AGTR1 [5]) | DiscoveRx β-arrestin2 Ymax (%) (AGTR1 [5]) | EC50 (hAT1R [1]; [7])
CCc1nc2c(C)cc(C)nc2n1Cc1ccc(-c2cc(C3CCCCO3)ccc2-c2nn[nH]n2)cc1 (single isomer, unassigned) [Example 78, 2-ethyl-5,7-dimethyl-3-((5′-(tetrahydro-2H-pyran-2-yl)-2′-(2H-tetrazol-5-yl)-[1,1′-biphenyl]-4-yl)methyl)-3H-imidazo[4,5-b]pyridine] | 85.0% | 37.5 nM | 94.3% | 15 nM | 36.1% | 72.3 nM | 37.8% | 79.5 nM | 19.9 nM | 50.0% | 
CCCCC1=NC2(CCOC2)C(=O)N1Cc1ccc(-c2cc(-c3ccccc3)ccc2-c2nnn[nH]2)cc1 (single isomer, unassigned) [Example 146] | 35.0% | 52.6 nM | 85.6% | 38.2 nM |  | > 100000 nM | 8.3% | 76.2 nM | 31.6 nM | 34.0% | 
CCCCC1=NC2(CCOC2)C(=O)N1Cc1ccc(-c2cc(-c3ccccc3)ccc2-c2nnn[nH]2)cc1 (single isomer, unassigned) [Example 147, 3-((6′-(1H-tetrazol-5-yl)-[1,1′:3′,1″-terphenyl]-4-yl)methyl)-2-butyl-7-oxa-1,3-diazaspiro[4.4]non-1-en-4-one] | 26.1% | 109 nM | 66.6% | 126 nM |  | > 100000 nM | 3.6% | 178 nM | 107 nM | 23.0% | 
CCc1nc2c(C)cc(C)nc2n1Cc1ccc(-c2cc(-c3ccccc3C)ccc2-c2nn[nH]n2)cc1 [Example 2] | 15.2% | 11 nM | 74.2% | 11.3 nM | 2.7% | 22 nM | 13.1% | 71.8 nM | 19.8 nM | 21.8% | 
CCc1nc2c(C)cc(C)nc2n1Cc1ccc(-c2cc(-c3ccccc3)ccc2-c2nn[nH]n2)cc1 [Example 4] | 69.3% | 8.2 nM | 95.4% | 3.8 nM | 13.0% | 4.8 nM | 9.8% | 19 nM | 7.5 nM | 48.9% | 
CCc1nc2c(C)cc(C)nc2n1Cc1ccc(-c2cc(-c3cccc(C)c3)ccc2-c2nn[nH]n2)cc1 [Example 8] | 80.5% | 5.4 nM | 93.0% | 4.1 nM | 14.0% | 7.7 nM | 6.9% | 6 nM | 6 nM | 42.2% | 
CCc1nc2c(C)cc(C)nc2n1Cc1ccc(-c2cc(-c3cc(C)cc(C)c3)ccc2-c2nn[nH]n2)cc1 [Example 9] | 80.3% | 9.4 nM | 87.8% | 5.6 nM | 14.2% | 19.5 nM | 7.1% | 8.7 nM | 3.7 nM | 66.7% | 
CCc1nc2c(C)cc(C)nc2n1Cc1ccc(-c2cc(-c3ccccc3O)ccc2-c2nn[nH]n2)cc1 [Example 10] | 86.8% | 2.4 nM | 86.9% | 1.4 nM | 26.1% | 2.8 nM | 14.4% | 5 nM | 1.4 nM | 60.3% | 
CCc1nc2c(C)cc(C)nc2n1Cc1ccc(-c2cc(-c3cccc(OC)c3)ccc2-c2nn[nH]n2)cc1 [Example 20] | 59.5% | 12.2 nM | 85.5% | 4.3 nM | 12.0% | 10.8 nM | 9.9% | 12.8 nM | 4.9 nM | 38.7% | 
CCc1nc2c(C)cc(C)nc2n1Cc1ccc(-c2cc(-n3cccn3)ccc2-c2nn[nH]n2)cc1 [Example 25] | 10.1% | 32.9 nM | 74.5% | 19.8 nM |  | > 100000 nM | 6.7% | 40.8 nM | 15.9 nM | 23.1% | 
CCc1nc2c(C)cc(C)nc2n1Cc1ccc(-c2cc(-c3ccccn3)ccc2-c2nn[nH]n2)cc1 [Example 30, 2-Ethyl-5,7-dimethyl-3-((5′-(pyridin-2-yl)-2′-(2H-tetrazol-5-yl)-[1,1′-biphenyl]-4-yl)methyl)-3H-imidazo[4,5-b]pyridine] | 72.9% | 14.5 nM | 87.5% | 5.6 nM | 23.5% | 19.1 nM | 12.3% | 15.9 nM | 4.9 nM | 48.0% | 
CCc1nc2c(C)cc(C)nc2n1Cc1ccc(-c2cc(-c3ccccc3)ccc2-c2noc(=O)[nH]2)cc1 [Example 32, 3-(4″-((2-ethyl-5,7-dimethyl-3H-imidazo[4,5-b]pyridin-3-yl)methyl)-[1,1′:3′,1″-terphenyl]-4′-yl)-1,2,4-oxadiazol-5(4H)-one] | 80.9% | 12.5 nM | 91.6% | 5.1 nM | 25.2% | 21.1 nM | 10.8% | 38.4 nM | 34.3 nM | 86.1% | 
CCCCC1=NC2(CCCC2)C(=O)N1Cc1ccc(-c2cc(-c3ccccc3)ccc2-c2nn[nH]n2)cc1 [Example 33] | 27.5% | 26.7 nM | 83.0% | 16.5 nM |  | > 10000 nM | 3.3% | 80.8 nM | 9.7 nM | 29.9% | 
CCc1nc2c(C)cc(C)nc2n1Cc1ccc(-c2cc(-c3cc(F)cc(F)c3)ccc2-c2nn[nH]n2)cc1 [Example 53] | 61.8% | 14 nM | 90.6% | 5.4 nM |  | > 100000 nM | 5.8% | 7.9 nM | 2.6 nM | 39.4% | 
CCc1nc2c(C)cc(C)nc2n1Cc1ccc(-c2cc(-c3nccs3)ccc2-c2nn[nH]n2)cc1 [Example 56] | 14.2% | 54 nM | 63.0% | 48.9 nM | 4.0% | 42.6 nM |  | > 100000 nM | 58.3 nM | 20.8% | 
CCc1nc2c(C)cc(C)nc2n1Cc1ccc(-c2cc(-c3ccsn3)ccc2-c2nn[nH]n2)cc1 [Example 57] | 8.9% | 19.9 nM | 66.3% | 15.2 nM | 5.0% | 14.3 nM |  | > 100000 nM | 16.6 nM | 26.3% | 
CCc1nc2c(C)cc(C)nc2n1Cc1ccc(-c2cc(-c3ccccc3)ccc2-c2n[nH]c(=S)o2)cc1 [Example 246, 5-(4″-((2-Ethyl-5,7-dimethyl-3H-imidazo[4,5-b]pyridin-3-yl)methyl)-[1,1′:3′,1″-terphenyl]-4′-yl)-1,3,4-oxadiazole-2(3H)-thione] |  |  |  |  | 10.1% | 82.6 nM | 4.8% | 281 nM | 234 nM | 38.3% | 916 nM
CCc1nc2c(C)cc(C)nc2n1Cc1ccc(-c2cc(Oc3cccnc3F)ccc2-c2nn[nH]n2)cc1 [Example 262] |  |  |  |  | 14.4% | 11.2 nM | 8.6% | 37.9 nM | 19.9 nM | 50.8% | 14.3 nM
